# Laboratory results: patent US10385069B2, “Imidazo[2,1-B]thiazole and 5,6-dihydroimidazo[2,1-B]thiazole derivatives useful as S100-inhibitors” (Active Biotech AB, priority 2015, dated 2019)
# pIC50: −log10 of the molar value.
# Biological target: T1, interaction between biotinylated human S100A9 and human RAGE-Fc (Homo sapiens, UniProt P06702)
# T1 construct: made in house; host or cells: E. coli
# T1 sequence (P06702 1-114): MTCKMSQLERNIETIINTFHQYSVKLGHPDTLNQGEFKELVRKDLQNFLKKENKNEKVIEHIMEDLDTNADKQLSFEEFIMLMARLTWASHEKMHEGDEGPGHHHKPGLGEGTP
# Assay: AlphaScreen inhibition assay, biot-hS100A9:hRAGE-Fc
# Assay type: binding
# Conditions: biot-hS100A9 pre-incubated with compound 1 h, assay buffer with CaCl2 and ZnCl2
# Procedure, shortened: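 Biotinylated human S100A9, preincubated with compound, binds human RAGE-Fc on protein A Acceptor beads in HBS-P with CaCl2 and ZnCl2; streptavidin Donor beads added, AlphaScreen signal read. Protein levels set by cross-titration; beads 20 μg/mL final. Percent inhibition versus DMSO control; IC50 from varied compound concentrations.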
row,Structure (SMILES),pIC50
1,"O=C(O)C1CN2C(=N1)Sc1c2ccc(Br)c1Cl (centres unmarked) [Example 240, 10-Bromo-9-chloro-7-thia-2,5-diazatricyclo[6.4.0.0^2,6]dodeca-1(8),5,9,11-tetraene-4-carboxylic acid]",6.37
2,"CC(C)(C)C1CCc2c(sc3nc(C(=O)O)c(CN4CCOCC4)n23)C1 (centres unmarked) [Example 242, 10-tert-Butyl-3-(morpholin-4-ylmethyl)-7-thia-2,5-diazatricyclo[6.4.0.0^2,6]dodeca-1(8),3,5-triene-4-carboxylic acid]",5.86
3,"O=C(O)c1cn2c(n1)sc1c(Cl)c(Br)ccc12 [Example 243, 10-Bromo-9-chloro-7-thia-2,5-diazatricyclo[6.4.0.0^2,6]dodeca-1(8),3,5,9,11-pentaene-4-carboxylic acid]",6.68
4,"Cc1c(C(=O)O)nc2sc3c(n12)CC(C)(C)CC3(C)C [Example 245, 3,9,9,11,11-Pentamethyl-7-thia-2,5-diazatricyclo[6.4.0.0^2,6]dodeca-1(8),3,5-triene-4-carboxylic acid]",6.57
5,"CC(C)CC1(C(=O)O)CN2C(=N1)Sc1c2ccc(F)c1Cl (centres unmarked) [Example 249, 9-Chloro-10-fluoro-4-(2-methylpropyl)-7-thia-2,5-diazatricyclo[6.4.0.0^2,6]dodeca-1(8),5,9,11-tetraene-4-carboxylic acid]",6.16
6,"CC1(C(=O)O)CN2C(=N1)Sc1c2ccc(F)c1Cl (centres unmarked) [Example 250, 9-Chloro-10-fluoro-4-methyl-7-thia-2,5-diazatricyclo[6.4.0.0^2,6]dodeca-1(8),5,9,11-tetraene-4-carboxylic acid]",6.17
7,"COc1ccc(-c2c(C(=O)O)nc3sc4c(n23)CC(C)(C)CC4(C)C)cc1 [Example 254, 3-(4-Methoxyphenyl)-9,9,11,11-tetramethyl-7-thia-2,5-diazatricyclo[6.4.0.0^2,6]dodeca-1(8),3,5-triene-4-carboxylic acid]",5.94
8,"CON(C)Cc1c(C(=O)O)nc2sc3c(n12)CCC(C(C)(C)C)C3 (centres unmarked) [Example 257, 10-tert-Butyl-3-{[methoxy(methyl)amino]methyl}-7-thia-2,5-diazatricyclo[6.4.0.0^2,6]dodeca-1(8),3,5-triene-4-carboxylic acid]",6.05
9,"O=C(O)c1cn2c(n1)sc1c(Cl)c(Cl)c(OCCN3CCOCC3)cc12 [Example 261, 9,10-Dichloro-11-[2-(morpholin-4-yl)ethoxy]-7-thia-2,5-diazatricyclo[6.4.0.0^2,6]dodeca-1(8),3,5,9,11-pentaene-4-carboxylic acid]",6.26
10,"O=C(O)C1(Cc2ccccc2)CN2C(=N1)Sc1c2ccc(F)c1Cl (centres unmarked) [Example 262, 4-Benzyl-9-chloro-10-fluoro-7-thia-2,5-diazatricyclo[6.4.0.0^2,6]dodeca-1(8),5,9,11-tetraene-4-carboxylic acid]",6.11
11,"O=C(O)C1(CO)CN2C(=N1)Sc1c2ccc(F)c1Cl (centres unmarked) [Example 263, 9-Chloro-10-fluoro-4-(hydroxymethyl)-7-thia-2,5-diazatricyclo[6.4.0.0^2,6]dodeca-1(8),5,9,11-tetraene-4-carboxylic acid]",5.97
12,"O=C(O)c1cn2c(n1)sc1c(Cl)c(N3CC(F)(F)C3)ccc12 [Example 266, 9-Chloro-10-(3,3-difluoroazetidin-1-yl)-7-thia-2,5-diazatricyclo[6.4.0.0^2,6]dodeca-1(8),3,5,9,11-pentaene-4-carboxylic acid]",6.02

# Continued by rising pIC50, values first:
row,pIC50,Structure (SMILES)
1,5.77,"CC1(C)Cc2c(sc3nc(C(=O)O)c(C4CNC4)n23)C(C)(C)C1 [Example 235, 3-(Azetidin-3-yl)-9,9,11,11-tetramethyl-7-thia-2,5-diazatricyclo[6.4.0.0^2,6]dodeca-1(8),3,5-triene-4-carboxylic acid]"
2,5.77,"CC(C)(C)C1CCc2c(sc3nc(C(=O)O)c(Br)n23)C1 (centres unmarked) [Example 253, 3-Bromo-10-tert-butyl-7-thia-2,5-diazatricyclo[6.4.0.0^2,6]dodeca-1(8),3,5-triene-4-carboxylic acid]"
3,5.82,"COc1ccccc1-c1c(C(=O)O)nc2sc3c(n12)CC(C)(C)CC3(C)C [Example 247, 3-(2-Methoxyphenyl)-9,9,11,11-tetramethyl-7-thia-2,5-diazatricyclo[6.4.0.0^2,6]dodeca-1(8),3,5-triene-4-carboxylic acid]"
4,5.94,"CC(=O)NCc1c(C(=O)O)nc2sc3c(n12)CCC(C(C)(C)C)C3 (centres unmarked) [Example 255, 10-tert-Butyl-3-(acetamidomethyl)-7-thia-2,5-diazatricyclo[6.4.0.0^2,6]dodeca-1(8),3,5-triene-4-carboxylic acid]"
5,5.95,"CC(C)(C)C1CCc2c(sc3nc(C(=O)O)c(CN4CCCCC4=O)n23)C1 (centres unmarked) [Example 244, 10-tert-Butyl-3-[(2-oxopiperidin-1-yl)methyl]-7-thia-2,5-diazatricyclo[6.4.0.0^2,6]dodeca-1(8),3,5-triene-4-carboxylic acid]"
6,6.00,"O=C(O)c1cn2c(n1)sc1c(Cl)c(N3CCCC3)ccc12 [Example 248, 9-Chloro-10-(pyrrolidin-1-yl)-7-thia-2,5-diazatricyclo[6.4.0.0^2,6]dodeca-1(8),3,5,9,11-pentaene-4-carboxylic acid]"
7,6.16,"O=C(O)c1cn2c(n1)sc1c(Cl)c(Cl)cc(OCCN3CCOCC3)c12 [Example 241, 9,10-Dichloro-12-[2-(morpholin-4-yl)ethoxy]-7-thia-2,5-diazatricyclo[6.4.0.0^2,6]dodeca-1(8),3,5,9,11-pentaene-4-carboxylic acid]"
8,6.22,"CC1(C)Cc2c(sc3nc(C(=O)O)c(CN4CCOCC4)n23)C(C)(C)C1 [Example 246, 9,9,11,11-Tetramethyl-3-(morpholin-4-ylmethyl)-7-thia-2,5-diazatricyclo[6.4.0.0^2,6]dodeca-1(8),3,5-triene-4-carboxylic acid]"
9,6.29,"CC1(C)Cc2c(sc3nc(C(=O)O)c(C4CC4)n23)C(C)(C)C1 [Example 258, 3-Cyclopropyl-9,9,11,11-tetramethyl-7-thia-2,5-diazatricyclo[6.4.0.0^2,6]dodeca-1(8),3,5-triene-4-carboxylic acid]"
10,6.30,"CC(C)(C)C1CCc2c(sc3nc(C(=O)O)c(CO)n23)C1 (centres unmarked) [Example 256, 10-tert-Butyl-3-(hydroxymethyl)-7-thia-2,5-diazatricyclo[6.4.0.0^2,6]dodeca-1(8),3,5-triene-4-carboxylic acid]"
11,6.37,"CC1(C)Cc2c(sc3nc(C(=O)O)c(N4CCOCC4)n23)C(C)(C)C1 [Example 233, 9,9,11,11-Tetramethyl-3-(morpholin-4-yl)-7-thia-2,5-diazatricyclo[6.4.0.0^2,6]dodeca-1(8),3,5-triene-4-carboxylic acid]"
12,6.54,"O=C(O)c1cn2c(n1)sc1c(Cl)c(C3CC3)ccc12 [Example 252, 9-Chloro-10-cyclopropyl-7-thia-2,5-diazatricyclo[6.4.0.0^2,6]dodeca-1(8),3,5,9,11-pentaene-4-carboxylic acid]"
13,6.70,"O=C(O)c1nc2sc3c(Cl)c(F)ccc3n2c1N1CCOCC1 [Example 238, 9-Chloro-10-fluoro-3-(morpholin-4-yl)-7-thia-2,5-diazatricyclo[6.4.0.0^2,6]dodeca-1(8),3,5,9,11-pentaene-4-carboxylic acid]"
14,7.05,"Cc1c(C(=O)O)nc2sc3c(Cl)c(F)ccc3n12 [Example 234, 9-Chloro-10-fluoro-3-methyl-7-thia-2,5-diazatricyclo[6.4.0.0^2,6]dodeca-1(8),3,5,9,11-pentaene-4-carboxylic acid]"
